From the supplement of paper PMC10307832

Each cell line was assayed with CC1(COc2ccc3c(c2)ncn3-c2ccc3cccc(N4CCC(N)CC4)c3n2)COC1 [Crenolanib] + CC(=O)Nc1cccc(-n2c(=O)n(C3CC3)c(=O)c3c(Nc4ccc(I)cc4F)n(C)c(=O)c(C)c32)c1 [Trametinib] (partner 0.02 µM) (assay: relative viability (nuclei count vs DMSO), 5 days (fraction); higher = more cells survive). Details: first compound 0.01 µM.
Summary of the method: (§1)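 Five library-drug doses in √10 steps were combined with a fixed anchor-drug dose, or a single drug was given alone, by pin tool to lung cancer cell lines in 1536-well plates the day after seeding. Nuclei were stained and counted after 5 days. Relative viability is the nuclei count in treated wells over that in vehicle wells, taken as the median of duplicate plates.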

Row | Cell Line | relative viability
1 | NCI-H1792 | 0.422
2 | HCC-366 | 0.367
3 | PC-3 [JPC-3] | 0.758
4 | EKVX | 0.365
5 | LCLC-103H | 0.686
6 | NCI-H1650 | 0.715
7 | NCI-H1993 | 0.509

Same assay, conditions: first compound 0.03162 µM

Row | Cell Line | relative viability
8 | LXF-289 | 0.638
9 | BEN | 1.06
10 | HCC-15 | 0.394
11 | HCC-827 | 0.529
12 | NCI-H441 | 0.479
13 | LOU-NH91 | 0.793
14 | NCI-H2023 | 0.556
15 | NCI-H460 | 0.169
16 | NCI-H727 | 0.387
17 | NCI-H1755 | 0.707
18 | NCI-H520 | 0.714
19 | SW 1573 | 0.607
20 | 201T | 0.703
21 | NCI-H1975 | 0.316
22 | HOP-62 | 0.372
23 | NCI-H2347 | 0.286

Row | Cell Line | relative viability
24 | NCI-H1355 | 0.381
25 | NCI-H650 | 1.01
26 | NCI-H1666 | 0.824
27 | H3255 | 0.612
28 | NCI-H23 | 0.412
29 | NCI-H1915 | 0.324
30 | NCI-H1437 | 0.572
31 | NCI-H322M | 0.516
32 | NCI-H1792 | 0.545
33 | NCI-H2085 | 0.571
34 | HCC-366 | 0.374
35 | EKVX | 0.405
36 | LCLC-103H | 0.643
37 | NCI-H1650 | 0.534
38 | NCI-H1993 | 0.512

Same assay, conditions: first compound 0.1 µM

Row | Cell Line | relative viability
39 | LXF-289 | 0.689
40 | BEN | 1.09
41 | HCC-15 | 0.379
42 | HCC-827 | 0.505
43 | NCI-H441 | 0.425
44 | LOU-NH91 | 0.774
45 | NCI-H2023 | 0.53
46 | A-427 | 0.755
47 | NCI-H460 | 0.151
48 | NCI-H727 | 0.359
49 | NCI-H1755 | 0.734
50 | NCI-H520 | 0.644
51 | NCI-H2405 | 0.483
52 | SW 1573 | 0.55
53 | 201T | 0.688
54 | NCI-H1975 | 0.313
55 | HOP-62 | 0.368

Row | Cell Line | relative viability
56 | NCI-H2347 | 0.282
57 | NCI-H1355 | 0.405
58 | NCI-H650 | 0.976
59 | NCI-H1666 | 0.857
60 | H3255 | 0.639
61 | NCI-H23 | 0.425
62 | NCI-H1915 | 0.289
63 | NCI-H1437 | 0.487
64 | NCI-H322M | 0.488
65 | NCI-H1792 | 0.399
66 | NCI-H2085 | 0.549
67 | HCC-366 | 0.3
68 | PC-3 [JPC-3] | 0.632
69 | EKVX | 0.348
70 | LCLC-103H | 0.651
71 | NCI-H1650 | 0.521
72 | NCI-H1993 | 0.56

Same assay, conditions: first compound 0.3162 µM

Row | Cell Line | relative viability
73 | LXF-289 | 0.7
74 | BEN | 0.998
75 | HCC-15 | 0.402
76 | HCC-827 | 0.473
77 | NCI-H441 | 0.485
78 | LOU-NH91 | 0.879
79 | NCI-H2023 | 0.594
80 | A-427 | 0.818
81 | NCI-H460 | 0.17
82 | NCI-H727 | 0.382
83 | NCI-H1755 | 0.885
84 | NCI-H520 | 0.678
85 | NCI-H2405 | 0.621
86 | SW 1573 | 0.726
87 | 201T | 0.722
88 | NCI-H1975 | 0.304
89 | HOP-62 | 0.379

Row | Cell Line | relative viability
90 | NCI-H2347 | 0.255
91 | NCI-H1355 | 0.547
92 | NCI-H650 | 1.05
93 | NCI-H1666 | 0.985
94 | H3255 | 0.754
95 | NCI-H23 | 0.387
96 | NCI-H1915 | 0.304
97 | NCI-H1437 | 0.521
98 | NCI-H322M | 0.525
99 | NCI-H1792 | 0.485
100 | NCI-H2085 | 0.51
101 | HCC-366 | 0.422
102 | PC-3 [JPC-3] | 0.623
103 | EKVX | 0.332
104 | LCLC-103H | 0.692
105 | NCI-H1650 | 0.747
106 | NCI-H1993 | 0.505

Same assay, conditions: first compound 1 µM

Row | Cell Line | relative viability
107 | LXF-289 | 0.718
108 | BEN | 1.15
109 | HCC-15 | 0.38
110 | HCC-827 | 0.6
111 | NCI-H441 | 0.408
112 | LOU-NH91 | 0.788
113 | NCI-H2023 | 0.494
114 | A-427 | 0.747
115 | NCI-H460 | 0.133
116 | NCI-H727 | 0.447
117 | NCI-H1755 | 0.75
118 | NCI-H520 | 0.686
119 | NCI-H2405 | 0.57
120 | SW 1573 | 0.579
121 | 201T | 0.745
122 | NCI-H1975 | 0.359
123 | HOP-62 | 0.37

Row | Cell Line | relative viability
124 | NCI-H2347 | 0.293
125 | NCI-H1355 | 0.37
126 | NCI-H650 | 0.992
127 | NCI-H1666 | 0.83
128 | H3255 | 0.627
129 | NCI-H23 | 0.408
130 | NCI-H1915 | 0.275
131 | NCI-H1437 | 0.602
132 | NCI-H322M | 0.609
133 | NCI-H1792 | 0.347
134 | NCI-H2085 | 0.554
135 | HCC-366 | 0.345
136 | PC-3 [JPC-3] | 0.585
137 | EKVX | 0.413
138 | LCLC-103H | 0.667
139 | NCI-H1650 | 0.575
140 | NCI-H1993 | 0.501

The cell lines below were run with CC1(COc2ccc3c(c2)ncn3-c2ccc3cccc(N4CCC(N)CC4)c3n2)COC1 [Crenolanib] + Nc1ncn([C@H]2C[C@H](O)[C@@H](CO)O2)c(=O)n1 [Decitabine] (partner 2 µM) in the same assay as above. Details: first compound 0.01 µM.
Summary of the method: as §1

Row | Cell Line | relative viability
141 | LXF-289 | 0.402
142 | BEN | 0.768
143 | HCC-15 | 0.625
144 | HCC-827 | 0.332
145 | NCI-H441 | 0.259
146 | LOU-NH91 | 0.863
147 | NCI-H2023 | 0.153
148 | A-427 | 0.573
149 | NCI-H460 | 0.261
150 | NCI-H727 | 0.872
151 | NCI-H1755 | 0.678
152 | NCI-H520 | 0.54
153 | NCI-H2405 | 0.775
154 | SW 1573 | 0.333
155 | 201T | 0.863
156 | NCI-H1975 | 0.376
157 | HOP-62 | 0.222
158 | NCI-H2347 | 0.657
